How the values were obtained:
[1] = tested on: WSU-DLCL2 xenograft; assay: Inhibition of tumor growth in vivo, resistant WSU-DLCL2 SCID mouse model; conditions: for Antitumor effect (%): WSU-DLCL2, Oral, BID
Method: (§1) Inhibition Study of Tumor Growth In Vivo:
SCID mice or nude mice (weighing about 18 g at the beginning of the experiment) were randomly divided into groups by the software in order to achieve close average weights between groups and control the bias within the allowable range. The mice were injected BTK cell lines (TMD-8, WSU-DLCL2 and DoHH-2) for tumor formation. […] Body weights and tumor volume were recorded.
(§2) Xenograft Tumor Models Inoculated with TMD-8, or DoHH2, or WSU-DLCL2 Tumor Cell Lines:
(§3) TMD-8 is a sensitive human diffuse large B-cell lymphoma cell line, and DoHH2 is a more difficult to treat human follicular lymphoma cell line, while WSU-DLCL2 is a multi-drug resistant (MDR) human non-Hodgkin's lymphoma cell line.
The TMD-8, DoHH2, WSU-DLCL2 tumor cells were maintained in vitro as a suspension culture in RPMI-1640 medium supplemented with 10% heat inactivated fetal calf serum at 37° C. in an atmosphere of 5% CO2 in air. The tumor cells were routinely subcultured twice weekly. The cells growing in an exponential growth phase were harvested and counted for tumor inoculation. Each mouse was inoculated subcutaneously at the right flank with the tumor cells (10×10^6) in 0.2 ml of PBS with Matrigel (1:1) for tumor development. The treatments were started after the average tumor size reached approximately 100-200 mm^3. Each group consisted of 6-10 tumor-bearing mice. […] Animal body weight and tumor volume were measured every 2- or 3-days throughout the treatment.

[2] = tested on: TMD-8 lymphoma xenograft; assay: Inhibition of tumor growth in vivo, TMD-8 lymphoma xenograft SCID mouse model; conditions: TMD-8, Oral, BID
Method: as §1
SCID mice or nude mice (weighing about 18 g at the beginning of the experiment) were randomly divided into groups by the software in order to achieve close average weights between groups and control the bias within the allowable range. The mice were injected BTK cell lines (TMD-8, WSU-DLCL2 and DoHH-2) for tumor formation. Inhibitors were administered orally once or twice a day, a total of 14 days, 21 days or 28 days. Body weights and tumor volume were recorded.
as §2
as §3, with “line. Drug combination therapies provide better efficacies in all three tumor models than single targeted agent alone.” for “line.”
The TMD-8, DoHH2, WSU-DLCL2 tumor cells were maintained in vitro as a suspension culture in RPMI-1640 medium supplemented with 10% heat inactivated fetal calf serum at 37° C. in an atmosphere of 5% CO2 in air. The tumor cells were routinely subcultured twice weekly. The cells growing in an exponential growth phase were harvested and counted for tumor inoculation. Each mouse was inoculated subcutaneously at the right flank with the tumor cells (10×10^6) in 0.2 ml of PBS with Matrigel (1:1) for tumor development. The treatments were started after the average tumor size reached approximately 100-200 mm^3. Each group consisted of 6-10 tumor-bearing mice. The testing article (vehicle, compound or combination) was orally administrated to the mice according to the predetermined doses for 14-days or 21-days. Animal body weight and tumor volume were measured every 2- or 3-days throughout the treatment.

Compound: C=CC(=O)N1CC[C@@H](n2nc(-c3ccc(Oc4c(F)c(F)cc(F)c4F)cc3F)c3c(N)ncnc32)C1 [Compound 3, 1-((R)-3-(4-amino-3-(2-fluoro-4-(2,3,5,6-tetrafluorophenoxy)phenyl)-1H-pyrazolo[3,4-d]pyrimidin-1-yl)pyrrolidin-1-yl)prop-2-en-1-one]
- Antitumor effect (%) ([1]; FIG. 8, 28 days, 10 mg/kg): 22%
- Antitumor effect (%) ([1]; FIG. 8, 28 days, 30 mg/kg): 30%
- Antitumor effect (%) ([1]; FIG. 8, 28 days, 45 mg/kg): 32%
- Antitumor effect (%) ([1]; FIG. 9, 18 days, 5 mg/kg): 4%
- Antitumor effect (%) ([1]; FIG. 9, 18 days, 10 mg/kg): 7%
- Antitumor effect (%) ([1]; FIG. 9, 18 days, 30 mg/kg): 23%
- efficacy / tumor growth ([1]; WSU-DLCL2 mice model, FIGS. 8 and 9, triple combination at total 21 mg/kg/day): in line with the efficacy of Ibrutinib
- Antitumor effect (%) ([2]; FIG. 2, 14 days, 10 mg/kg): 63%
- Antitumor effect (%) ([2]; FIG. 2, 14 days, 30 mg/kg): 89%
- Antitumor effect (%) ([2]; FIG. 3, 21 days, 5 mg/kg): 90%
- Antitumor effect (%) ([2]; FIG. 3, 21 days, 10 mg/kg): 96%
- Antitumor effect (%) ([2]; FIG. 4, 21 days, 10 mg/kg): 77%
- Antitumor effect (%) ([2]; FIG. 12, 14 days, 5 mg/kg): 75%

Reference: patent US10098900B2, “Pharmaceutical compositions and their use for treatment of cancer and autoimmune diseases” (ZHEJIANG DTRM BIOPHARMA CO. LTD., priority 2015, dated 2018)
